Test results as given in ChEMBL document CHEMBL1201862, “PubChem BioAssay data set” (2004).
Calls of active or inactive are those of the source.

Columns and labels:
[1] = biological target: Mothers against decapentaplegic homolog 3 (Homo sapiens, UniProt P84022); experiment: Smad3 binding inhibitors, lysate ELISA, dose response, cell lysate, secondary confirmation, chemiluminescent ELISA, HEK293 lysate (AID 1058); type: functional
Streptokinase A = biological target: T1, Streptokinase A (Streptococcus pyogenes serotype M1, UniProt P10520); experiment: S. pyogenes streptokinase expression inhibitors, potency, dose response, plasminogen activation absorbance, OD405 (AID 1914); type: functional, Streptococcus pyogenes M1 GAS;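 also: secreted streptokinase activity via plasminogen activation per viability signal from cell pellet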
T1 sequence (P10520 whole entry): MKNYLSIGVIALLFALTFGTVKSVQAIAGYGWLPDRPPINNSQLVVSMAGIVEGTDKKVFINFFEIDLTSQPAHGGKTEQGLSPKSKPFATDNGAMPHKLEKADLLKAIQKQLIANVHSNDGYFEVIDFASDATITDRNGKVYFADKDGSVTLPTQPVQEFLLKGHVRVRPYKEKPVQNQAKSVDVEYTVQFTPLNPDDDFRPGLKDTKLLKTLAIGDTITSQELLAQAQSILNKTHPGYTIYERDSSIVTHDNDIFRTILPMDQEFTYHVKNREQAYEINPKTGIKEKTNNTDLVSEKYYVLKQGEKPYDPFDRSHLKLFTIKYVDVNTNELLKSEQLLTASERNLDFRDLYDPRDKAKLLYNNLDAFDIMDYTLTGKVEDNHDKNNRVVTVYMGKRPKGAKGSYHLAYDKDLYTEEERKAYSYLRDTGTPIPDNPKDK

[2] = control 3'UTR Renilla luciferase suppression, dose response, counter-screen for Shn3 inhibitor project, cell-based, Clone20-Shn3RL, cherry-picked (AID 624133); type: functional
Nonstructural protein 1 = Nonstructural protein 1 (Influenza A virus, UniProt Q194T2); type: functional, Influenza A virus (A/California/07/2009(H1N1))
[3] = tested on: Streptococcus sp. 'group A'; experiment: growth inhibition of control SK(-) GAS strain, dose response, counter-screen for streptokinase expression inhibitor project, luminescence, kanamycin, BacTiterGlo, confirmation (AID 1900); type: functional, organism-based
cells [4] = type: functional, cell-based
[5] = HepG2 cell cytotoxicity, dose response, cytotoxicity control, ATP luminescence, cherry-pick, activator set 2 (AID 1053143); type: functional, cell-based
[6] = Artemis endonuclease inhibitor potency, dose response, biochemical, fluorescence intensity (AID 720701); type: functional;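 also: Artemis endonuclease enzyme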
[7] = Shn3 3'UTR reporter inhibitors, dose response, cell-based, Clone20 osteoblasts, firefly luciferase, cherry-picked (AID 624132); type: functional;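 also: firefly luciferase luminescence from reporter carrying the Shn3 3'UTR in osteoblasts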
[8] = cytotoxicity in HPDE-C7 cells, cell-based, fluorescence, HTS (AID 430); type: functional; conditions: Homo sapiens
[9] = inhibitors of intracellular T. cruzi replication, confirmation, NIH3T3 host cells, beta-gal luminescence (AID 2044); type: functional, cell-based;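 also: intracellular parasites grown in NIH/3T3 mouse fibroblasts as host cells; luminescent beta-galactosidase reporter signal from transgenic T. cruzi replicating inside host cells; inhibitors lower the luminescence signal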
INS1 = experiment: beta cell apoptosis inhibitors, cytokine rescue, dose response, luminescence, retest (AID 449756); type: functional, cell-based; conditions: Rattus norvegicus;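 also: cell death triggered by IL-1 beta plus TNF-alpha plus IFN-gamma mixture; protective hits raise ATP signal compared with cytokine alone wells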
[10] = cytotoxicity in KRAS-transformed pancreatic duct cells, primary screen, cell-based, fluorescence, HTS (AID 431); type: functional; conditions: Homo sapiens;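 also: cell line used: HPDE-C7K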
[11] = biological target: T2, Serine/threonine-protein phosphatase (Homo sapiens, UniProt Q9BPW0); experiment: Counterscreen for inhibitors of PP1: fluorescence-based biochemical high throughput dose response assay to identify inhibitors of Protein Phosphatase 5 (PP5). [Related pubchem assays: 2034 (Summary (PP5 inhibitors)), 1987 (PP5 inhibitors in singlate), 2235 (PP1 inhibitors in singlate)]
T2 sequence (Q9BPW0 whole entry): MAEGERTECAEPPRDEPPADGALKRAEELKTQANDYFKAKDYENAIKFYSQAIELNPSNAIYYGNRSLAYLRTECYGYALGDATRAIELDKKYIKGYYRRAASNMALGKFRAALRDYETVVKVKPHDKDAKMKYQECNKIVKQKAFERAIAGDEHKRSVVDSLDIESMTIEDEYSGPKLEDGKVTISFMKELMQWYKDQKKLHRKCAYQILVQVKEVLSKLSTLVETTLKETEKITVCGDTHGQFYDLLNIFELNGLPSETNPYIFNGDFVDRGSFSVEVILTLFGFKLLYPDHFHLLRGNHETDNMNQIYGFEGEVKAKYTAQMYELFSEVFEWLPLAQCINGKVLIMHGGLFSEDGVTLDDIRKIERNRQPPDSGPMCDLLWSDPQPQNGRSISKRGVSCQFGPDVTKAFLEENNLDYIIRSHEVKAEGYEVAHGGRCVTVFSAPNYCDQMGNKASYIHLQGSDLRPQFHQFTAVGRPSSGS

[12] = HepG2 cell cytotoxicity, dose response, cytotoxicity control for Shn3 inhibitor project, CellTiter-Glo, cherry-picked (AID 624134); type: functional, cell-based
[13] = biological target: Serine/threonine-protein phosphatase PP1-alpha catalytic subunit (Homo sapiens, UniProt P62136); experiment: PP1 phosphatase inhibitors, dose response, biochemical, fluorescence (AID 2403);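 also: phosphatase turnover of OMFP into fluorescent 3-O-methylfluorescein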
cells [14] = type: functional, cell-based; remark: listed apart in the source
[15] = cytotoxicity toward NIH3T3 fibroblasts, dose response, counter-screen, cell-based, ATP luminescence, mouse fibroblasts (AID 2010); type: functional;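 also: cells exposed to compound for about 90 hours before reading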
Streptococcus = experiment: Group A Streptococcus viability loss, dose response, counter-screen for streptokinase expression inhibitor project, luminescence, BacTiterGlo (AID 1915); type: functional, organism-based;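 also: potency for reduction of bacterial viability or growth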
[16] = Luminescence Cell-Based Dose-Confimation HTS to Identify Inhibitors of 5'UTR Stem-Loop Driven Alpha-Synuclein mRNA Translation in H4 Neuroglioblastoma Cells. [Related pubchem assays: 1827 (Project Summary), 1813 (Primary HTS)]; type: functional
HeLa = experiment: Cytotoxicity counterscreen assay for transcriptional activators of heat shock protein 70 (Hsp70). [Related pubchem assays: 1203, 1252 ]; type: functional; conditions: Homo sapiens;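 also: cells exposed to compound for 16 hours before readout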
[17] = biological target: T3, Type-1 angiotensin II receptor (Homo sapiens, UniProt P30556); experiment: AT1 receptor antagonists, dose response, selectivity assay for APJ receptor antagonist project, cell-based, uHTS hits (AID 463214); type: functional;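 also: antagonist potency against angiotensin II stimulated AT1 response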
T3 sequence (P30556 whole entry): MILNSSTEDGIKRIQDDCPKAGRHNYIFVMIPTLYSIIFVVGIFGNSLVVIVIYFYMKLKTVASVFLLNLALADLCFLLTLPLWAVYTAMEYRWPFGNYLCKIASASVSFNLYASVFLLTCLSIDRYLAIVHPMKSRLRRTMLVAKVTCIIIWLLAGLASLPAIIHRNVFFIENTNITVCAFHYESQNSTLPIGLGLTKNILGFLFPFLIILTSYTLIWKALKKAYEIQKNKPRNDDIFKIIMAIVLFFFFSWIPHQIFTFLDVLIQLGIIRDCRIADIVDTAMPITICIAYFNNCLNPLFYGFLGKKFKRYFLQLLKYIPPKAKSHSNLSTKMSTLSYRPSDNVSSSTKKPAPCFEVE

[18] = cytotoxicity in HEK-293T cells, dose response, cytotoxicity control for TCR NF-kB inhibitor project, luminescence, T-cell screen hits (AID 489026); type: functional, cell-based;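 also: cells exposed to compound about 14 hours before the viability readout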
[19] = biological target: G-protein coupled receptor 55 (Homo sapiens, UniProt Q9Y2T6); experiment: GPR55 antagonists blocking LPI-driven arrestin recruitment, primary screen, imaging, U2OS, beta-arrestin-GFP, LPI agonist (AID 2013); type: functional;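 also: antagonist potency measured as reduced agonist-driven arrestin aggregation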
[20] = Luminescence-based dose response cell-based high throughput screening assay for cytotoxic compounds using the IEC-6 intestinal epithelial cell line. [Related pubchem assays: 1858 (Summary AID.), 1825 (Counterscreen.), 1907 (Confirmation screen.)]; type: functional
Beta-galactosidase = Beta-galactosidase (Escherichia coli, UniProt Q8VNN2); experiment: PubChem AID 485352; type: functional
[21] = biological target: Peroxisome proliferator-activated receptor gamma/Nuclear receptor coactivator 2 (Homo sapiens, UniProt P37231); type: functional;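 also: agonist potency for raising coactivator recruitment to the receptor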
[22] = biological target: Peroxisome proliferator-activated receptor gamma/Nuclear receptor coactivator 1 (Homo sapiens, UniProt P37231); type: functional;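 also: agonist potency as compounds enhance coactivator SRC-1 recruitment to PPARgamma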
[23] = biological target: Peroxisome proliferator-activated receptor gamma/Nuclear receptor coactivator 3 (Homo sapiens, UniProt P37231); type: functional;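 also: agonist potency for raising coactivator recruitment to the receptor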
[24] = biological target: T4, Heat shock 70 kDa protein 1A (Homo sapiens, UniProt P0DMV8); experiment: Hsp70 inhibitors, biochemical, TR-FRET (AID 786)
[25] = biological target: T4, Heat shock 70 kDa protein 1A; experiment: Hsp70 inhibitors, probe displacement, primary screen, biochemical, fluorescence polarization (AID 583)
[26] = biological target: T5, Eukaryotic translation initiation factor 2-alpha kinase 3 (Homo sapiens, UniProt Q9NZJ5); experiment: Dose response cell-based high-throughput screening assay to measure PERK inhibition. [Related pubchem assays: 1416 ]; type: functional
[27] = biological target: T5, Eukaryotic translation initiation factor 2-alpha kinase 3; experiment: Counterscreen assay for PERK inhibitors: Dose response cell-based high throughput screening assay to measure inhibition of PERK at 6 hours. [Related pubchem assays: 1522, 1416 ]; type: functional

T4 sequence (P0DMV8 whole entry): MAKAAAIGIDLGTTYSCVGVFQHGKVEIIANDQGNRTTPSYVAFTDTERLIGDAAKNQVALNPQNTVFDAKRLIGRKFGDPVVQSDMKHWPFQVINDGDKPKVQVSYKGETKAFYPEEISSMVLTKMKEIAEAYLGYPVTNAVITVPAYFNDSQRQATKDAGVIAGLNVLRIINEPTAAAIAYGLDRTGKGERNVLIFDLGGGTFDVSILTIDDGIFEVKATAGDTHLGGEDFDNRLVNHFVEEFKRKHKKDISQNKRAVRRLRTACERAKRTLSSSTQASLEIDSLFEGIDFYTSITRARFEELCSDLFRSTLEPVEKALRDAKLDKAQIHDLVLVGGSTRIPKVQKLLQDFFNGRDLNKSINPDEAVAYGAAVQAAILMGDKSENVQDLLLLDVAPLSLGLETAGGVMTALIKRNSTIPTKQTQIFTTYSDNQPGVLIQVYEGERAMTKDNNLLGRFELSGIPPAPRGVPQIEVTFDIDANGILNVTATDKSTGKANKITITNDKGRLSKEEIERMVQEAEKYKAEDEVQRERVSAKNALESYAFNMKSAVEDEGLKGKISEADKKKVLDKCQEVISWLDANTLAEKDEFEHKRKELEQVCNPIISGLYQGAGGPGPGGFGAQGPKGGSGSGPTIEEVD
T5 sequence (Q9NZJ5 whole entry): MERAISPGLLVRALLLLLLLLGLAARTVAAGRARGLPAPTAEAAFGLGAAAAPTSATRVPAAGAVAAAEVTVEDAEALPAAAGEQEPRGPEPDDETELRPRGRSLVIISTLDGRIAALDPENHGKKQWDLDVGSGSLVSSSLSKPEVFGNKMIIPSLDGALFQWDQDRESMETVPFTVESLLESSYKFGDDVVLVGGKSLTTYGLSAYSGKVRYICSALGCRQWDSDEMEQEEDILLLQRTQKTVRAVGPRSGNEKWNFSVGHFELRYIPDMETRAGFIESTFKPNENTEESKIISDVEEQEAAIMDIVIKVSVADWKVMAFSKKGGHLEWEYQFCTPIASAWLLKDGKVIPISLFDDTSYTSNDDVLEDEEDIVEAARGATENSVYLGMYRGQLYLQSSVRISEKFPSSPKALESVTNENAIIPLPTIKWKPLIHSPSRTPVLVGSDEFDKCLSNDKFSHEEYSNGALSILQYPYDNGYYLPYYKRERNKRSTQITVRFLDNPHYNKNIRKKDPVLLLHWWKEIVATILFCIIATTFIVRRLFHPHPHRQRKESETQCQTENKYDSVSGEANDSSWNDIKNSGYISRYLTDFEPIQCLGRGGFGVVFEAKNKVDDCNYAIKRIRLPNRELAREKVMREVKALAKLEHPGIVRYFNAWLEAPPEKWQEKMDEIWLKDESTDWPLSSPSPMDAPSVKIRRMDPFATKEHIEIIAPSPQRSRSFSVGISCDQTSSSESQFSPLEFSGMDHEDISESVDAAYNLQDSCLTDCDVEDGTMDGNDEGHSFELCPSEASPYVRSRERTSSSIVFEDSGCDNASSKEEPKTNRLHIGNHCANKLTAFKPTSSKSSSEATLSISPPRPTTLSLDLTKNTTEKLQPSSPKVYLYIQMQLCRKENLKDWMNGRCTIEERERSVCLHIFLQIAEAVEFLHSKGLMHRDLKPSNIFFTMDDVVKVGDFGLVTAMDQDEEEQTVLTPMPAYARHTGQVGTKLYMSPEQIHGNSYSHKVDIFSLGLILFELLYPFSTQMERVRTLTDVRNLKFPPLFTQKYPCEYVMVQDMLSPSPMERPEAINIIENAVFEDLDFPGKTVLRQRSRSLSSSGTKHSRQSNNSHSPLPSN
Chain of Nonstructural protein 1 (Q194T2 whole entry): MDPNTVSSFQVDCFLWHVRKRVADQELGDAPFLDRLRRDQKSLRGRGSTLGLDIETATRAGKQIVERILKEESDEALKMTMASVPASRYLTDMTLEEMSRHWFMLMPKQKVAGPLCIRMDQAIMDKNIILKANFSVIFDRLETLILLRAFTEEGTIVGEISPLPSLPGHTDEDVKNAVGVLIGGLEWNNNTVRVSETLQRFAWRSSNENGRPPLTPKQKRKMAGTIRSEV
Chain of Serine/threonine-protein phosphatase PP1-alpha catalytic subunit (P62136 whole entry): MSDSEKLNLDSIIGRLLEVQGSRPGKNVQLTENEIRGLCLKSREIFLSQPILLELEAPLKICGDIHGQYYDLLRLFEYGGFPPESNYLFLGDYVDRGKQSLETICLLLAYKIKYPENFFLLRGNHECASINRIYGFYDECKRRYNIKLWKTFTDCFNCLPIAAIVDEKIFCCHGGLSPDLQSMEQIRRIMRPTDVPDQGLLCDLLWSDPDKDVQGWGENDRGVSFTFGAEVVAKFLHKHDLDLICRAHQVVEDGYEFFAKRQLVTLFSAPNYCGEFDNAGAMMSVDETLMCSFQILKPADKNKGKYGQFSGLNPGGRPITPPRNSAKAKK
Chain of Mothers against decapentaplegic homolog 3 (P84022 whole entry): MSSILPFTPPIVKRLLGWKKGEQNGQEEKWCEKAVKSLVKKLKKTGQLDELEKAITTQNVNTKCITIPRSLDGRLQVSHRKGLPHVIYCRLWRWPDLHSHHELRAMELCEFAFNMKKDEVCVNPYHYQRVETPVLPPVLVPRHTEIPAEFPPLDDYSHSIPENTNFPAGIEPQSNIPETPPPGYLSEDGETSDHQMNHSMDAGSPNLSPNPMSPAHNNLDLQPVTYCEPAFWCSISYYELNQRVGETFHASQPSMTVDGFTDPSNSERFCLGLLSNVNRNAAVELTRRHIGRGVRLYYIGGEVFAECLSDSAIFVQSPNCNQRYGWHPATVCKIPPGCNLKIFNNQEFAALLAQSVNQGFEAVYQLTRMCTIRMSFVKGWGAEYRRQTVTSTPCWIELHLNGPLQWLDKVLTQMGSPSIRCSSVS
Chain of G-protein coupled receptor 55 (Q9Y2T6 whole entry): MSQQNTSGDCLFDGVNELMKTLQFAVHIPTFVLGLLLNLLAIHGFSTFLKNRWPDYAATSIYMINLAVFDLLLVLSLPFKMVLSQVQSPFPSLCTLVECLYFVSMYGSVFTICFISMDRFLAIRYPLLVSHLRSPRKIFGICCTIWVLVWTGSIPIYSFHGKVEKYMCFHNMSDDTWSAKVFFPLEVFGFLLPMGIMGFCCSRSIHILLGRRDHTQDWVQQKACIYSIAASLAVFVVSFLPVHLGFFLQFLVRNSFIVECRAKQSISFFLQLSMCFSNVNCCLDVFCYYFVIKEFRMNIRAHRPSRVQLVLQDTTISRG
Chain of Beta-galactosidase (Q8VNN2 whole entry): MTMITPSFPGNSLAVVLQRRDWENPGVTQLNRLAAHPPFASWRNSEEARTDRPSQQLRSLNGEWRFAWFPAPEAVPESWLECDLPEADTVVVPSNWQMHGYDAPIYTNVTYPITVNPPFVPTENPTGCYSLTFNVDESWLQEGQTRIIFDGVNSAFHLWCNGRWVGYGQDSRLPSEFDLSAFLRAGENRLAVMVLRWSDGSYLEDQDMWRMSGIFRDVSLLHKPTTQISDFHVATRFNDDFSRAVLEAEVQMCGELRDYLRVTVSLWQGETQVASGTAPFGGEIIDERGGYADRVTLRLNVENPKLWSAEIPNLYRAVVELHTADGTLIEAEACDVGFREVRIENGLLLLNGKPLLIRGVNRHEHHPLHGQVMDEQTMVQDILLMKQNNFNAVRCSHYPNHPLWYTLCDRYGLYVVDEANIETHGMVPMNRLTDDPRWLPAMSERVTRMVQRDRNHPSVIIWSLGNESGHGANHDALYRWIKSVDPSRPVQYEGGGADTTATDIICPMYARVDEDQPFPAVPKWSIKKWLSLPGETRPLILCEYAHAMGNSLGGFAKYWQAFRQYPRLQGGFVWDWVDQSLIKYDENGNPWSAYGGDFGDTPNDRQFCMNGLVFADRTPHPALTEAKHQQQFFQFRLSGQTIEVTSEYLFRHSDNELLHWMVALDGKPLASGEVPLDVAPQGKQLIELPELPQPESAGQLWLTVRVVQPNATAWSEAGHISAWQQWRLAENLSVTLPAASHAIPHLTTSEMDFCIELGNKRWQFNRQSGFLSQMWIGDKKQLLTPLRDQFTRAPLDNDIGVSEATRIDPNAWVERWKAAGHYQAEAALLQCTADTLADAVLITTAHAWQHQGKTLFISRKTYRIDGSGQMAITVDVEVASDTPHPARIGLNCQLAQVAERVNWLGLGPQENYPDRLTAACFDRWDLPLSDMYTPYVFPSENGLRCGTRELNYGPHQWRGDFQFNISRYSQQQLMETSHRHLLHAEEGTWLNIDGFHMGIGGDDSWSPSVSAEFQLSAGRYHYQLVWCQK

Question: For `COc1cc(C(c2cc3c(cc2O)OCO3)N2CCOCC2)cc(OC)c1OC` (stereo not drawn), which IC50 [1] is on record?
Answer: Its IC50 is 9.66 µM (not active).

Question: For `Oc1c(C(Nc2ccccn2)c2ccccn2)ccc2cccnc12` (stereo not drawn), which EC50 (Streptokinase A) is on record?
Answer: Its EC50 is > 150 µM (not active).

Question: What about the AC50 [2] of the same compound?
Answer: The AC50 was 2.88 µM (active).

Question: And the IC50 (Nonstructural protein 1)?
Answer: The IC50 was 8.2 µM (active).

Question: What about the EC50 [3] of the same compound?
Answer: The EC50 was 7.44 µM (active).

Question: And the EC50 (cells [4])?
Answer: The EC50 was > 350 µM (not active).

Question: And the AC50 [5]?
Answer: Its AC50 is 21.9 µM (active).

Question: And the IC50 [6]?
Answer: Its IC50 is 11.4 µM (active).

Question: What about the AC50 [7] of the same compound?
Answer: Its AC50 is 4.36 µM (active).

Question: And the EC50 [8]?
Answer: The EC50 was 17.6 µM (active).

Question: What about the EC50 [9] of the same compound?
Answer: Its EC50 is 1.22 µM (active).

Question: What about the AC50 (INS1) of the same compound?
Answer: The AC50 was 2.79 µM (active).

Question: And the EC50 [10]?
Answer: Its EC50 is > 20 µM (not active).

Question: What about the IC50 [11] of the same compound?
Answer: The IC50 was > 67 µM (not active).

Question: And the AC50 [12]?
Answer: The AC50 was 6 µM (active).

Question: What about the IC50 [13] of the same compound?
Answer: The IC50 was 3.82 µM (active).

Question: What about the EC50 (cells [14]) of the same compound?
Answer: The EC50 was 9.9 µM (active).

Question: What about the EC50 [15] of the same compound?
Answer: The EC50 was 5.87 µM (active).

Question: What about the EC50 (Streptococcus) of the same compound?
Answer: Its EC50 is 14.8 µM (active).

Question: For `Cc1cccc(C)c1-n1nnnc1SCc1nc(N)nc(N(C)C)n1`, which EC50 [16] is on record?
Answer: Its EC50 is 8.3 µM (active).

Question: With `COc1ccc(NC(=O)/C(Cl)=C(/Cl)[S+]([O-])Cc2ccccc2Cl)cn1` (stereo not drawn) as the compound, how does the CC50 (HeLa) read?
Answer: The CC50 was 1.43 µM (active).

Question: What about the IC50 [17] of the same compound?
Answer: The IC50 was 4.54 µM (active).

Question: What about the IC50 [18] of the same compound?
Answer: The IC50 was 25.3 µM (inactive).

Question: What about the IC50 [19] of the same compound?
Answer: The IC50 was 3.25 µM (active).

Question: And the IC50 [20]?
Answer: The IC50 was 1.36 µM (active).

Question: And the EC50 (Beta-galactosidase)?
Answer: Its EC50 is > 40 µM (inactive).

Question: What does the source list for `O=C(CSc1ccc2nnc(-c3ccccn3)n2n1)NCc1ccc2c(c1)OCO2`?
Answer: EC50 [21]: > 79.4 µM (not active); EC50 [22]: > 79.4 µM (not active); EC50 [23]: > 79.4 µM (not active)

Question: Which results are given for `COCCCNC(=O)CC(NS(=O)(=O)c1ccc(C)cc1)c1ccco1` (stereo not drawn)?
Answer: IC50 [24]: > 100 µM (not active); IC50 [25]: > 100 µM (not active)

Question: Which EC50 [26] does the source give for `CCSc1nnc(NC(=O)c2cc(-c3ccccc3O)[nH]n2)s1` here?
Answer: Its EC50 is > 55.7 µM (not active).

Question: And the EC50 [27]?
Answer: Its EC50 is > 55.7 µM (not active).
